Experimental data: patent US20140377340A1, “HLA-DR BINDING PEPTIDES AND THEIR USES” (priority 2007, published 2014)

How the values were obtained:
[1] = target: T1, purified HLA DRB1*0101 (Homo sapiens, UniProt P01903+P01911, A100R/D57E/F55L/F60I/F76Y/I96L/L162R/M171V/P40L/Q125E/R42F/V115G/Y59C); assay: HLA-DR radioligand binding inhibition assay, DRB1*0101; settings: IC50 nM purified HLA DRB1 *0101, purified HLA DRB1*0101
T1 construct: purified from EBV transformed homozygous cell lines or single MHC allele transfected 721.221, C1R, or fibroblast lines; made in house
Method: (§1) Instead, wells of an opaque white 96-well Optiplate (Packard) are coated with 3 μg (100 μl@ 30 μg/ml) of HLA-specific antibody (Ab) that “capture” complexes of radiolabeled MHC and unlabeled peptide transferred from the molecular binding assay plate in 100 μl of 0.05% NP40/PBS. After a 3-hour incubation period, the supernatant is decanted and scintillation fluid (Microscint 20) added. Captured complexes are then measured on a microplate scintillation and luminescence counter (TopCount NXTTM; Packard).
(§2) HLA-DR purification. Fifteen distinct HLA-DR molecules were used in quantitative assays to measure the binding of peptides to solubilized HLA-DR molecules. […] Briefly, columns of inactivated Sepharose CL4B and Protein A Sepharose were used as pre-columns. HLA-DR molecules were captured by passage of lysates over LB3.1 monoclonal antibody (anti-HLA-DRA) columns. Antibody columns were washed with 10 mM Tris-HCL, pH8.0 with 1% (v/v) NP-40, followed by PBS containing 0.4% (w/v) n-octylglucoside.
(§3) Briefly, 1-10 nM of radiolabeled peptide was co-incubated for 2 days at either room temperature or 37° C. with 1 μM to 1 nM purified HLA-DR molecules in the presence of a cocktail of protease inhibitors. Assays were performed at various pH conditions, ranging from pH 4 to pH 7. […] After incubation, the percentage of HLA-DR-bound radioactivity is determined by capturing HLA-DR/peptide complexes on Optiplates (Packard Instruments, Meriden, Conn.) coated with the LB3.1 antibody and determining bound counts per minute using the TopCount microscintillation counter (Packard Instruments).

[2] = target: T2, purified HLA DRB1*0405 (Homo sapiens, UniProt P01903+P01911, A100R/A169T/D86S/F76Y/I96L/K127E/L162R/M171V/N62H/P40V/Q125Y/R42H/S133A/S149N/S66Y/V115G/V209L/W38E); assay: HLA-DR radioligand binding inhibition assay, DRB1*0405; settings: IC50 nM purified HLA DRB1 *0405, purified HLA DRB1*0405
T2 construct: purified from EBV transformed homozygous cell lines or single MHC allele transfected 721.221, C1R, or fibroblast lines; made in house
Method: as §1, §2, §3

[3] = target: T3, purified HLA DRB5*0101 (Homo sapiens, UniProt P01903+Q30154); assay: HLA-DR radioligand binding inhibition assay, DRB5*0101; settings: IC50 nM purified HLA DRB5 *0101, purified HLA DRB5*0101
T3 construct: purified from EBV transformed homozygous cell lines or single MHC allele transfected 721.221, C1R, or fibroblast lines; made in house
Method: as §1, §2, §3

[4] = target: T4, purified HLA DRB1*0401 (Homo sapiens, UniProt P01903+P01911, A100K/A169T/F76Y/I96L/K127E/L162R/M171V/N62H/P40V/Q125Y/R42H/S133A/S149N/S66Y/V115G/V209L/W38E); assay: HLA-DR radioligand binding inhibition assay, DRB1*0401; settings: IC50 nM purified HLA DRB1 *0401, purified HLA DRB1*0401
T4 construct: purified from EBV transformed homozygous cell lines or single MHC allele transfected 721.221, C1R, or fibroblast lines; made in house
Method: as §1, §2, §3

[5] = target: T5, purified HLA DRB1*1101 (Homo sapiens, UniProt P01903+P01911, A100R/A169T/A87E/I96F/K41T/L162R/M171V/P40S/Q125H/Q178H/Q39Y/Q99D/R42S/S66Y/T262R/V115G/W38E); assay: HLA-DR radioligand binding inhibition assay, DRB1*1101; settings: IC50 nM purified HLA DRB1 *1101, purified HLA DRB1*1101
T5 construct: purified from EBV transformed homozygous cell lines or single MHC allele transfected 721.221, C1R, or fibroblast lines; made in house
T5 sequence (P01903 26-254, other chains not shown): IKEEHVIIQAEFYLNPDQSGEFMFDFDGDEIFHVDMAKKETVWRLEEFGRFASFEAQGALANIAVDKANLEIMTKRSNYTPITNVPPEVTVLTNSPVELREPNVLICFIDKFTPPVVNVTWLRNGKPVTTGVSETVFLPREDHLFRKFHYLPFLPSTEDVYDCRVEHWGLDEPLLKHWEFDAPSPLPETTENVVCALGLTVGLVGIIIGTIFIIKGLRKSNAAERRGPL
Method: as §1, §2, §3

[6] = target: T6, purified HLA DRB1*1302 (Homo sapiens, UniProt P01903+P01911, A100E/A169T/K41T/L162R/M171V/P40S/Q125H/Q178H/Q39Y/Q99D/R42S/S66N/T262R/V115G/W38E/Y61H); assay: HLA-DR radioligand binding inhibition assay, DRB1*1302
T6 construct: purified from EBV transformed homozygous cell lines or single MHC allele transfected 721.221, C1R, or fibroblast lines; made in house
Method: as §1, §2, §3

[7] = target: T7, purified HLA DRB1*0701 (Homo sapiens, UniProt P01903+P01911, A100R/A102G/A103Q/D57E/D86V/E43K/F76Y/K127E/L162R/M171V/P40G/Q125H/Q99D/R33Q/R42Y/R54Q/S133A/S66F/T210M/V115G/Y107V/Y59L/Y89S); assay: HLA-DR radioligand binding inhibition assay, DRB1*0701; settings: IC50 nM purified HLA DRB1 *0701, purified HLA DRB1*0701
T7 construct: purified from EBV transformed homozygous cell lines or single MHC allele transfected 721.221, C1R, or fibroblast lines; made in house
Method: as §1, §2, §3

[8] = target: T8, purified HLA DRB1*1501 (Homo sapiens, UniProt P01903+P01911); assay: HLA-DR radioligand binding inhibition assay, DRB1*1501
T8 construct: purified from EBV transformed homozygous cell lines or single MHC allele transfected 721.221, C1R, or fibroblast lines; made in house
Method: as §1, §2, §3

SMILES	IC50 [1]	IC50 [2]	IC50 [3]	IC50 [5]	IC50 [6]	IC50 [7]	further results
CC(C)C[C@H](NC(=O)[C@H](C)NC(=O)[C@H](CC(C)C)NC(=O)[C@@H](N)CC(C)C)C(=O)N[C@@H](CC(C)C)C(=O)N1CCC[C@H]1C(=O)N1CCC[C@H]1C(=O)NCC(=O)N[C@@H](C)C(=O)N[C@@H](C)C(=O)N[C@@H](CO)C(=O)N[C@H](C(=O)N[C@@H](CCC(N)=O)C(=O)N[C@H](C(=O)N[C@@H](CS)C(=O)O)C(C)C)[C@@H](C)O [Peptide 1622.02]	17 nM	> 20000 nM	17 nM	–	–	–	–
CC[C@H](C)[C@H](NC(=O)[C@H](CC(C)C)NC(=O)[C@H](C)NC(=O)[C@H](CC(C)C)NC(=O)CN)C(=O)N[C@@H](Cc1c[nH]cn1)C(=O)N[C@@H](Cc1c[nH]cn1)C(=O)N[C@@H](CC(N)=O)C(=O)N[C@H](C(=O)N[C@@H](Cc1c[nH]cn1)C(=O)N[C@@H](CC(C)C)C(=O)N[C@@H](CS)C(=O)N[C@@H](Cc1ccccc1)C(=O)N[C@H](C(=O)N[C@@H](Cc1c[nH]cn1)C(=O)O)C(C)C)[C@@H](C)O [Peptide 9019.0058]	–	–	–	2800 nM	18 nM	–	IC50 [4]: 414 nM
CC[C@H](C)[C@H](NC(=O)[C@H](CCCCN)NC(=O)[C@H](CCC(N)=O)NC(=O)[C@@H](N)CCC(N)=O)C(=O)N[C@@H](CCCNC(=N)N)C(=O)N[C@@H](CCCCN)C(=O)N[C@@H](Cc1ccc(O)cc1)C(=O)N[C@H](C(=O)N[C@@H](CCSC)C(=O)N[C@@H](CCCNC(=N)N)C(=O)N[C@@H](CCCNC(=N)N)C(=O)N[C@@H](CC(C)C)C(=O)N[C@@H](CC(C)C)C(=O)N[C@@H](CCC(N)=O)C(=O)N[C@@H](CCC(=O)O)C(=O)O)[C@@H](C)O [Peptide 9019.0070]	–	–	340 nM	–	–	–	–
CC[C@H](C)[C@H](NC(=O)[C@H](CCCNC(=N)N)NC(=O)[C@@H](N)CCSC)C(=O)N[C@@H](CC(C)C)C(=O)N[C@@H](CCCCN)C(=O)N[C@@H](CCC(=O)O)C(=O)N[C@H](C(=O)N[C@@H](CCC(=O)O)C(=O)N[C@@H](CC(C)C)C(=O)N[C@@H](CCCNC(=N)N)C(=O)N[C@@H](CCCCN)C(=O)N[C@H](C(=O)N[C@@H](CCCCN)C(=O)N[C@H](C(=O)N[C@@H](CC(C)C)C(=O)O)C(C)C)C(C)C)[C@@H](C)O [Peptide 9019.0072]	–	–	–	2130 nM	–	–	–
CSCC[C@H](NC(=O)[C@H](CC(C)C)NC(=O)[C@H](CCC(N)=O)NC(=O)[C@@H](NC(=O)[C@@H](NC(=O)[C@H](CC(C)C)NC(=O)[C@H](CCC(N)=O)NC(=O)[C@@H](NC(=O)[C@@H](N)[C@@H](C)O)C(C)C)C(C)C)[C@@H](C)O)C(=O)N1CCC[C@H]1C(=O)N[C@@H](Cc1ccc(O)cc1)C(=O)NCC(=O)N[C@@H](CS)C(=O)N[C@@H](CC(C)C)C(=O)N[C@@H](CC(C)C)C(=O)O [Peptide 9019.0080]	–	–	3000 nM	–	–	–	–
CC[C@H](C)[C@H](NC(=O)[C@H](CCC(N)=O)NC(=O)[C@H](CCSC)NC(=O)[C@H](CS)NC(=O)[C@H](Cc1c[nH]c2ccccc12)NC(=O)[C@H](CC(N)=O)NC(=O)[C@H](CC(C)C)NC(=O)[C@@H](N)CC(C)C)C(=O)N[C@@H](C)C(=O)N[C@@H](CCCCN)C(=O)NCC(=O)N[C@@H](CCSC)C(=O)N[C@@H](CO)C(=O)N[C@@H](Cc1ccc(O)cc1)C(=O)N[C@@H](CC(C)C)C(=O)O [Peptide 9019.0082]	–	–	92 nM	–	–	380 nM	–

The next lines start with results.

IC50 [1]	IC50 [2]	IC50 [3]	IC50 [5]	IC50 [6]	IC50 [7]	SMILES	further results
110 nM	5800 nM	–	–	3230 nM	–	CSCC[C@H](NC(=O)CNC(=O)[C@H](CC(C)C)NC(=O)[C@H](CC(=O)O)NC(=O)CNC(=O)[C@@H](N)CC(=O)O)C(=O)NCC(=O)N[C@@H](C)C(=O)N[C@@H](C)C(=O)N[C@@H](CCCCN)C(=O)NCC(=O)N[C@@H](CC(C)C)C(=O)N[C@@H](CCC(N)=O)C(=O)N[C@@H](CO)C(=O)N[C@@H](CC(C)C)C(=O)O [Peptide 9019.0097]	–
–	> 20000 nM	> 20000 nM	> 20000 nM	–	410 nM	CC[C@H](C)[C@H](NC(=O)[C@@H](NC(=O)[C@@H]1CCCN1C(=O)[C@H](C)NC(=O)[C@H](CC(=O)O)NC(=O)[C@@H]1CCCN1C(=O)CNC(=O)[C@H](Cc1ccc(O)cc1)NC(=O)[C@H](CC(C)C)NC(=O)[C@@H](NC(=O)[C@H](CC(N)=O)NC(=O)[C@@H](N)CC(C)C)C(C)C)[C@@H](C)O)C(=O)N[C@@H](CO)C(=O)N1CCC[C@H]1C(=O)N[C@@H](CC(C)C)C(=O)O [Peptide 9019.0120]	–
2430 nM	5990 nM	–	–	125 nM	–	CC[C@H](C)[C@H](NC(=O)[C@@H](NC(=O)[C@@H]1CCCN1C(=O)[C@H](C)N)[C@@H](C)O)C(=O)N[C@@H](CO)C(=O)N1CCC[C@H]1C(=O)N[C@@H](CC(C)C)C(=O)N[C@@H](CC(N)=O)C(=O)N[C@H](C(=O)N[C@@H](CO)C(=O)N[C@@H](Cc1ccc(O)cc1)C(=O)N[C@@H](CCCNC(=N)N)C(=O)N[C@@H](CO)C(=O)NCC(=O)N[C@@H](CCC(=O)O)C(=O)O)[C@@H](C)O [Peptide 9019.0121]	IC50 [4]: 295 nM
850 nM	–	–	–	26 nM	–	CSCC[C@H](NC(=O)[C@H](C)NC(=O)[C@H](CC(C)C)NC(=O)[C@@H]1CCCN1C(=O)[C@H](Cc1ccccc1)NC(=O)[C@@H](NC(=O)[C@H](CCC(=O)O)NC(=O)[C@H](CCC(=O)O)NC(=O)[C@@H](N)CCC(=O)O)C(C)C)C(=O)N[C@@H](CC(N)=O)C(=O)N[C@@H](Cc1ccc(O)cc1)C(=O)N[C@@H](CC(C)C)C(=O)N[C@@H](CC(=O)O)C(=O)N[C@@H](CCCNC(=N)N)C(=O)N[C@@H](Cc1ccccc1)C(=O)O [Peptide 9019.0152]	IC50 [8]: 77 nM
–	–	36 nM	61 nM	–	17 nM	CC[C@H](C)[C@H](NC(=O)[C@@H](NC(=O)[C@H](CCC(=O)O)NC(=O)[C@H](CCCCN)NC(=O)[C@H](CCSC)NC(=O)[C@H](CCCCN)NC(=O)[C@H](CO)NC(=O)[C@H](C)NC(=O)[C@@H](NC(=O)[C@H](Cc1ccccc1)NC(=O)[C@H](CCSC)NC(=O)[C@H](CS)NC(=O)[C@@H](N)[C@@H](C)O)C(C)C)[C@@H](C)O)C(=O)N1CCC[C@H]1C(=O)N[C@@H](CC(C)C)C(=O)O [Peptide 9019.0157]	–
130 nM	> 20000 nM	–	–	550 nM	220 nM	CC[C@H](C)[C@H](NC(=O)[C@@H](NC(=O)[C@H](CCC(=O)O)NC(=O)[C@H](CCCCN)NC(=O)[C@H](CCSC)NC(=O)[C@H](CCCCN)NC(=O)[C@H](CO)NC(=O)[C@H](C)N)[C@@H](C)O)C(=O)N1CCC[C@H]1C(=O)N[C@@H](CC(C)C)C(=O)N[C@H](C(=O)N[C@@H](C)C(=O)N[C@@H](CCC(=O)O)C(=O)N[C@@H](CCCCN)C(=O)N[C@@H](CC(C)C)C(=O)O)[C@@H](C)O [Peptide 9019.0158]	IC50 [4]: > 20000 nM
–	6480 nM	–	16800 nM	–	3100 nM	CC(C)C[C@H](NC(=O)CNC(=O)[C@H](CC(C)C)NC(=O)[C@H](Cc1c[nH]cn1)NC(=O)[C@H](Cc1c[nH]cn1)NC(=O)[C@H](CCCCN)NC(=O)CN)C(=O)N[C@@H](CCC(=O)O)C(=O)N[C@@H](CCC(=O)O)C(=O)N1CCC[C@H]1C(=O)N[C@@H](CCCCN)C(=O)N[C@@H](CCCCN)C(=O)N[C@@H](CC(C)C)C(=O)N[C@@H](CCCNC(=N)N)C(=O)N1CCC[C@H]1C(=O)O [Peptide 9019.0187]	–
